Assays:
[1] = zanubrutinib PBPK model parameters; design: species or system human
P‐gp = P‐gp (Homo sapiens, UniProt P08183); assay: transporter substrate assessment; assay type: in vitro ADME
[2] = human liver microsome intrinsic clearance; assay type: in vitro ADME; conditions: liver microsomes
logP = assay type: physicochemical; conditions: octanol/water
pKa = assay type: physicochemical
[3] = population PK analysis; cited from earlier work
[4] = oral, patients with B-cell malignancies; cited from earlier work
CYP3A4 = CYP3A4 induction in human hepatocytes; assay type: in vitro ADME
OAT1 = biological target: T1, OAT1 (Homo sapiens, UniProt Q4U2R8); assay: transporter substrate/inhibitor assessment; assay type: in vitro ADME
T1 sequence (Q4U2R8 1-563): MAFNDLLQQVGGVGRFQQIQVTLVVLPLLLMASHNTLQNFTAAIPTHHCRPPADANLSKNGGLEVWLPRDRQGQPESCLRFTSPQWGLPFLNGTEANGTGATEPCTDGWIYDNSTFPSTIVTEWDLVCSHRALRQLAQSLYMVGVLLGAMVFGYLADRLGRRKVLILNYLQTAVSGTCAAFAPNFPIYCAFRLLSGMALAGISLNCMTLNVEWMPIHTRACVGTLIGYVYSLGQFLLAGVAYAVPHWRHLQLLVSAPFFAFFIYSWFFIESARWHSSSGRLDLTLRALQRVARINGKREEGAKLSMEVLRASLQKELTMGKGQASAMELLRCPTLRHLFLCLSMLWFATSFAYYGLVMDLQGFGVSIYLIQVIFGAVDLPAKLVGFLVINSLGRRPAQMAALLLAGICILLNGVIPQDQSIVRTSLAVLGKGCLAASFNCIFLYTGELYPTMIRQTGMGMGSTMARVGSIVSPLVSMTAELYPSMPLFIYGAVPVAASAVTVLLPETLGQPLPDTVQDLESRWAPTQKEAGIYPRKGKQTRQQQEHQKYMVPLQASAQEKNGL

OCT2 = biological target: T2, OCT2 (Homo sapiens, UniProt O15244); assay: transporter substrate/inhibitor assessment; assay type: in vitro ADME
T2 sequence (O15244 1-555): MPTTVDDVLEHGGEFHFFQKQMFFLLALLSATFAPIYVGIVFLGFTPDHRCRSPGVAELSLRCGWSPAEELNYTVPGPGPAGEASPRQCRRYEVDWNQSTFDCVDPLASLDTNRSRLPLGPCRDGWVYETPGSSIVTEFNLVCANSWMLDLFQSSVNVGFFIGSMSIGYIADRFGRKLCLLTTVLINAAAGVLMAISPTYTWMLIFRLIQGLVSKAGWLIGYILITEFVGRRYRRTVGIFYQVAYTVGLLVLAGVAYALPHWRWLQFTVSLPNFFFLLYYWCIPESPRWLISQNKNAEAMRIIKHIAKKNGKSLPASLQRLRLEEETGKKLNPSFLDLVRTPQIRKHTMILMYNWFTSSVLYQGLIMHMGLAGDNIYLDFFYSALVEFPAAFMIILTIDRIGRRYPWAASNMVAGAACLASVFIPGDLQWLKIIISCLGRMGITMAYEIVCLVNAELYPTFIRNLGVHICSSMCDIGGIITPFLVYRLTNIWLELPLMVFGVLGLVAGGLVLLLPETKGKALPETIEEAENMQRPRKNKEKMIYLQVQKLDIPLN

Chain of P‐gp (P08183 whole entry): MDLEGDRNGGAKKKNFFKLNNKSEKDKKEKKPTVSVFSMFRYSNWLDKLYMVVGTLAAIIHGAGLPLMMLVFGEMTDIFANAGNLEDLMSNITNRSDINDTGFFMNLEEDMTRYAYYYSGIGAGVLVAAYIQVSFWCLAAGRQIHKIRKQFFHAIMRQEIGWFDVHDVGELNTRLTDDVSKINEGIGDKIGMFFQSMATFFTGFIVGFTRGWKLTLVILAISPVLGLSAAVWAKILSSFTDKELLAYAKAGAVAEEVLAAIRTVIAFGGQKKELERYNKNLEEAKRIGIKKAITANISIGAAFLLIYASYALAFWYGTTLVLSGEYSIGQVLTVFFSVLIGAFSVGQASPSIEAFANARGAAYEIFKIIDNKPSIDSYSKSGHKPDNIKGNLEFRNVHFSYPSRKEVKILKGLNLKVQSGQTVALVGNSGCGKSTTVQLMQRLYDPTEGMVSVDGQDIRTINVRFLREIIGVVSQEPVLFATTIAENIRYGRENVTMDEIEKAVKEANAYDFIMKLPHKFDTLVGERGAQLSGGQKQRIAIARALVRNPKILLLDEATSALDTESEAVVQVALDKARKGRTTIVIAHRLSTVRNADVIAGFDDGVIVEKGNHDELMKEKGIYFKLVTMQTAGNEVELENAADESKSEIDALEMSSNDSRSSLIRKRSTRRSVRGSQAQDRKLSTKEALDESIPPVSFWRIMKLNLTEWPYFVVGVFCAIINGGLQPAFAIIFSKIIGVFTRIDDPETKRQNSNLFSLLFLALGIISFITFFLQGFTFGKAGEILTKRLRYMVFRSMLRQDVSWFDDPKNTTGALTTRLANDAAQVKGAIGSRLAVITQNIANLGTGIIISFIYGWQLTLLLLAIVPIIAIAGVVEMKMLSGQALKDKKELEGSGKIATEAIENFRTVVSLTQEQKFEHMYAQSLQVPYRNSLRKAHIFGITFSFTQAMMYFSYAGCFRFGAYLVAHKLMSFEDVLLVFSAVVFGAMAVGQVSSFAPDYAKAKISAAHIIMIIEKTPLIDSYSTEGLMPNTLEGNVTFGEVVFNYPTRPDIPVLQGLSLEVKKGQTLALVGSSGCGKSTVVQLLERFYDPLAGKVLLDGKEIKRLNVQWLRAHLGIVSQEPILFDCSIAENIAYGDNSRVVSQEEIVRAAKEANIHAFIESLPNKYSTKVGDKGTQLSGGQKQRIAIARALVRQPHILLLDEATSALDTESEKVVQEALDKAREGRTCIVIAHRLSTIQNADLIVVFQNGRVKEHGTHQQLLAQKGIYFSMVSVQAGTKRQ

In the case of `C=CC(=O)N1CCC([C@@H]2CCNc3c(C(N)=O)c(-c4ccc(Oc5ccccc5)cc4)nn32)CC1` [zanubrutinib, Zanubrutinib], the Estimated renal contribution [1] is reported as “Based on human absorption, metabolism, and excretion study (BGB−3111–105); Estimated renal contribution: 1.6% of total CL”, the CL renal ([1]; human, urine, oral, 320 mg) is reported as 8.33 mL/min and the P-gp substrate (P‐gp) is reported as “likely to be a substrate”. For the same compound, the microsomal CLint [2] was 109 µL/min/mg, the logP (logP) was 4.2 and the pKa (pKa) was 3.3. The “AUC lower in patients compared with healthy volunteers” value [3] was 43.7%, the “Cmax lower in patients compared with healthy volunteers” value [3] was 26.8% and the “mean apparent terminal elimination half-life” value [4] was 2 to 4 h. For the same compound, the “increase of CYP3A4 activity” value (CYP3A4; 3 μM) was 6.27 fold, the “increase of CYP3A4 activity” value (CYP3A4; 30 μM) was 2.51 fold and the “Indmax CYP3A4” value (CYP3A4; Emax model on activity data) was 6.27 fold. The EC50 (CYP3A4; human, hepatocytes) was 470 nM, the “R3 (CYP3A induction potential)” value (CYP3A4; per FDA DDI guidance, from in vitro data) was 0.23 and the “substrate or inhibitor of OAT1” value (OAT1) was “not a substrate or inhibitor”. For the same compound, the “substrate or inhibitor of OCT2” value (OCT2) was “not a substrate or inhibitor”.
